Measured values published in patent publication US20090076152A1, “Novel Compounds Active as Muscarinic Receptor Antagonists” (priority 2007, published 2009).
pKi: −log10 of the molar value.

Target: T1, human muscarinic M3 receptor (Homo sapiens, UniProt P20309)
T1 construct: expressed in transfected cells
Assay: hM3 β-Lac potency assay (NFAT-Betalactamase reporter in CHO-K1 cells)
Conditions: CHO cells recombinantly expressing human M3, NFAT β-lactamase reporter; inhibition of 80 nM carbamyl choline signal, 4 h; IC50 converted to Ki by Cheng-Prusoff; read-out: Cell based β-lactamase M3 Ki
Protocol: M3 potency was determined in CHO-K1 cells transfected with the NFAT-Betalactamase gene. CHO (Chinese Hamster Ovary) cells recombinantly expressing the human muscarinic M3 receptor were transfected with the NFAT_β-Lac_Zeo plasmid. Cells were grown in DMEM with Glutamax-1, supplemented with 25 mM HEPES(Life Technologies 32430-027), containing 10% FCS (Foetal Calf Serum; Sigma F-7524), […] Sodium pyruvate (Sigma S-8636), NEM (non-Essential Amino Acids; Invitrogen 11140-035) and 200 μg/ml Zeocin (Invitrogen R250-01).
Cells were harvested for assay when they reached 80-90% confluency using enzyme free cell Dissociation Solution (Life technologies 13151-014) incubated with the cells for 5 min at 37° C. in an atmosphere containing 5% CO2. Detached cells were collected in warmed growth media and centrifuged at 2000 rpm for 10 min, washed in PBS (Phosphate Buffered Saline; Life Technologies 14190-094) and centrifuged again as just described. The cells were re-suspended at 2×10^5 cells/ml in growth medium (composition as described above). 20 μl of this cell suspension was added to each well of a 384 well black clear bottomed plate (Greiner Bio One 781091-PFI). The assay buffer used was PBS supplemented with 0.05% Pluronic F-127 (Sigma 9003-11-6) and 2.5% DMSO. Muscarinic M3 receptor signalling was stimulated using 80 nM carbamyl choline (Aldrich N240-9) incubated with the cells for 4 h at 37° C./5% CO2 and monitored at the end of the incubation period using a Tecan SpectraFluor+ plate reader (λ—excitation 405 nm, emission 450 nm and 503 nm). M3 receptor antagonists under test were added to the assay at the beginning of the 4 h incubation period and compound activity measured as the concentration dependent inhibition of the carbamyl choline induced signal. Inhibition curves were plotted and IC50 values generated using a 4-parameter sigmoid fit and converted to Ki values using the Cheng-Prusoff correction and the KD value for carbamyl choline in the assay.

T1 sequence (P20309 whole entry): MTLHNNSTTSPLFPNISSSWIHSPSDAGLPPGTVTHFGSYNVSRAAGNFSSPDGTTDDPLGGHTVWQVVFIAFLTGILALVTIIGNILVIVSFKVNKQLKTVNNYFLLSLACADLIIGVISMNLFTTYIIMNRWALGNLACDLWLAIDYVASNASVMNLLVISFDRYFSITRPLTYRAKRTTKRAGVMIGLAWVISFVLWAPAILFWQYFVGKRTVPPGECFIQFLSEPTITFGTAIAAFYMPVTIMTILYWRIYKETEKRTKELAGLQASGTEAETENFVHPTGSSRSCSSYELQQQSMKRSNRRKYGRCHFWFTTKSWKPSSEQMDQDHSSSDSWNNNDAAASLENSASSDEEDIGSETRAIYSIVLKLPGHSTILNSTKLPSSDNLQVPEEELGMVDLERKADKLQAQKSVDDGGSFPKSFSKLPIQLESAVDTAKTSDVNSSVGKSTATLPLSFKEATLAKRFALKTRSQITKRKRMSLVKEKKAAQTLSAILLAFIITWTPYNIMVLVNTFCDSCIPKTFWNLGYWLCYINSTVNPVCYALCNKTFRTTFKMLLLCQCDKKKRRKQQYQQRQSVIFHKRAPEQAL

## CC(C)N(CC[C@H](c1ccccc1)c1cc(CCOc2ccc(CCNC(=O)c3ccc(O)c(F)c3)cc2)ccc1O)C(C)C [Example 5, N-[2-(4-{2-[3-((1R)-3-Diisopropylamino-1-phenyl-propyl)-4-hydroxy-phenyl]-ethoxy}-phenyl)-ethyl]-3-fluoro-4-hydroxy-benzamide]
  pKi: 8.27
